Measurements: ChEMBL document CHEMBL1201862, “PubChem BioAssay data set” (2004)
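Interpolation was linear, between the two tested concentrations surrounding the appropriate level; five concentrations were tested over 48 hours in 96-well plates. The concentration for 50% growth inhibition is given as GI50.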 Active and inactive are the calls of the source. Cut-off read from the data, not from the text of the source: active = GI50 up to about 1.1 µM and inactive = higher.

What was measured:
Assay in all cases: NCI-60 cell line screen, 48 h
[1] = tested on: Hs-578T
[2] = tested on: DU-145
[3] = tested on: SF-295
[4] = tested on: HT-29
[5] = tested on: HCT-116
[6] = tested on: NCI-H460
[7] = tested on: HOP-92
[8] = tested on: HCT-15
[9] = tested on: SNB-75
[10] = tested on: UO-31
[11] = tested on: UACC-62
[12] = tested on: MDA-MB-231
[13] = tested on: NCI-H226
[14] = tested on: OVCAR-8
[15] = tested on: SNB-19
[16] = tested on: UACC-257
[17] = tested on: Malme-3M
[18] = tested on: SF-268
[19] = tested on: SK-MEL-28
[20] = tested on: NCI-H23
[21] = tested on: RXF 393
[22] = tested on: KM12
[23] = tested on: NCI-H522
[24] = tested on: OVCAR-5
[25] = tested on: 786-0
[26] = tested on: MDA-N
[27] = tested on: CCRF-CEM
[28] = tested on: NCI/ADR-RES
[29] = tested on: MCF7
[30] = tested on: LOX IMVI
[31] = tested on: IGROV-1
[32] = tested on: EKVX
[33] = tested on: MOLT-4
[34] = tested on: SR
[35] = tested on: ACHN
[36] = tested on: T47D
[37] = tested on: SK-MEL-2
[38] = tested on: COLO 205
[39] = tested on: HOP-62
[40] = tested on: MDA-MB-435
[41] = tested on: TK-10
[42] = tested on: M14
[43] = tested on: U-251
[44] = tested on: SK-MEL-5
[45] = tested on: SF-539
[46] = tested on: OVCAR-4
[47] = tested on: RPMI-8226
[48] = tested on: PC-3
[49] = tested on: A498
[50] = tested on: SW-620
[51] = tested on: CAKI-1
[52] = tested on: SK-OV-3
[53] = tested on: OVCAR-3
[54] = tested on: K562
[55] = tested on: A549
[56] = tested on: SN12C
[57] = tested on: HCC 2998
[58] = tested on: HL-60

Measured: GI50

COc1ccc(N(CN2C(=O)CCC2OC)C(C)=O)cc1 (centres undefined)
> 100 µM: [8]
inactive: [1] > 100 µM | [2] > 100 µM | [3] > 100 µM | [4] > 100 µM | [5] > 100 µM | [6] > 100 µM | [7] > 100 µM | [9] > 100 µM | [10] > 100 µM | [11] > 100 µM | [12] > 100 µM | [13] > 100 µM | [14] > 100 µM | [15] > 100 µM | [16] > 100 µM | [17] > 100 µM | [18] > 100 µM | [19] > 100 µM | [20] > 100 µM | [21] > 100 µM | [22] > 100 µM | [23] > 100 µM | [24] > 100 µM | [25] > 100 µM | [26] > 100 µM | [27] > 100 µM | [28] > 100 µM | [29] > 100 µM | [30] > 100 µM | [31] > 100 µM | [32] > 100 µM | [33] > 100 µM | [34] > 100 µM | [35] > 100 µM | [36] > 100 µM | [37] > 100 µM | [38] > 100 µM | [39] > 100 µM | [40] > 100 µM | [41] > 100 µM | [42] > 100 µM | [43] > 100 µM | [44] > 100 µM | [45] > 100 µM | [46] > 100 µM | [47] > 100 µM | [48] > 100 µM | [49] > 100 µM | [50] > 100 µM | [51] > 100 µM | [52] > 100 µM | [53] > 100 µM | [54] > 100 µM | [55] > 100 µM | [56] > 100 µM

CC(C)[C@H](NC(=O)OCc1ccccc1)C(=O)N[C@H](/C=C/C(=O)OC(C)(C)C)CO
> 100 µM: [8]
active: [9] 0.12 µM
inactive: [1] > 100 µM | [2] > 100 µM | [3] > 100 µM | [4] > 100 µM | [5] 71.9 µM | [6] > 100 µM | [7] > 100 µM | [11] > 100 µM | [12] > 100 µM | [13] > 100 µM | [14] > 100 µM | [15] > 100 µM | [16] > 100 µM | [17] > 100 µM | [18] > 100 µM | [19] > 100 µM | [20] > 100 µM | [21] > 100 µM | [22] > 100 µM | [23] > 100 µM | [24] > 100 µM | [25] 65.6 µM | [26] > 100 µM | [27] 28.1 µM | [28] > 100 µM | [29] > 100 µM | [30] > 100 µM | [57] > 100 µM | [31] > 100 µM | [32] > 100 µM | [33] > 100 µM | [34] > 100 µM | [35] > 100 µM | [36] 36.7 µM | [37] > 100 µM | [38] 80.4 µM | [39] > 100 µM | [40] > 100 µM | [41] > 100 µM | [58] 57.1 µM | [42] > 100 µM | [44] > 100 µM | [45] > 100 µM | [46] > 100 µM | [48] 68.1 µM | [49] > 100 µM | [50] 92.9 µM | [51] > 100 µM | [52] > 100 µM | [53] > 100 µM | [55] > 100 µM | [56] > 100 µM

O=C(O)/C=C/C(=O)O [FUMARIC ACID]
> 100 µM: [8]
inactive: [1] > 100 µM | [2] > 100 µM | [3] > 100 µM | [4] > 100 µM | [5] > 100 µM | [6] > 100 µM | [7] > 100 µM | [9] > 100 µM | [10] > 100 µM | [12] > 100 µM | [13] > 100 µM | [14] > 100 µM | [15] > 100 µM | [16] > 100 µM | [17] > 100 µM | [18] > 100 µM | [19] > 100 µM | [20] > 100 µM | [22] > 100 µM | [23] > 100 µM | [24] > 100 µM | [25] > 100 µM | [26] > 100 µM | [27] > 100 µM | [28] > 100 µM | [29] > 100 µM | [30] > 100 µM | [57] > 100 µM | [31] > 100 µM | [32] > 100 µM | [33] > 100 µM | [34] > 100 µM | [35] > 100 µM | [36] > 100 µM | [37] > 100 µM | [38] > 100 µM | [39] > 100 µM | [40] > 100 µM | [41] > 100 µM | [58] > 100 µM | [42] > 100 µM | [43] > 100 µM | [44] > 100 µM | [45] > 100 µM | [46] > 100 µM | [47] > 100 µM | [48] > 100 µM | [50] > 100 µM | [51] > 100 µM | [53] > 100 µM | [54] > 100 µM | [55] > 100 µM | [56] > 100 µM
